We go through 3 compounds from article PMC6669903 (Neuron, 2019).

SMILES strings stand for the structures.

In one test the test system is Tiam1/CaMKII complex. The test is classed as cell-based. Conditions: bath application (AP5, KN-93) or cotransfection (CaMKIIN).
Test [1] concerns dendritic spines of CA1 pyramidal neurons in hippocampal organotypic slice cultures. Nature of the test: structural LTP. The format is cell-based, rat.
The next test deals with Rac1. Nature of the test: Rac1 activity in spines by FRET-FLIM sensor during sLTP. The test is classed as cell-based, rat. Conditions: change in lifetime of GFP-Rac1 in stimulated spines; uncaging 0.5 Hz.
For test [2], the system named is Tiam1 phosphorylation by CaMKII in neurons in dissociated culture. Nature of the test: Tiam1 phosphorylation after chemical LTP, Phos-tag SDS-PAGE. The test is classed as cell-based, rat. As to conditions: KN-93 10 µM; glycine 200 µM for 10 min.

Consider `N[C@H](CCCP(=O)(O)O)C(=O)O` [AP5, D-(−)-2-Amino-5-phosphonopentanoic acid], for which the “effect on Tiam1/CaMKII interaction after sLTP induction” value in the test on Tiam1/CaMKII complex is reported as “blocked”.

On to `O=c1cc(CN2CCOCC2)occ1OCCCCCSc1ccnc2cc(C(F)(F)F)ccc12` [EHT1864], for which the “effect on established sLTP, drug added 5 min after induction” value in test [1] (applied 5 min after sLTP induction) is reported as “effectively blocked sLTP”. Moreover, the “effect on established sLTP, drug added 15 min after induction” value in test [1] (applied 15 min after sLTP induction) is recorded as “effectively blocked sLTP”. The “effect on sLTP, drug added before induction” value in test [1] (applied 30 min before sLTP induction, spines visualized by untagged GFP) is reported as “effectively inhibited sLTP”.

On to `COc1ccc(S(=O)(=O)N(CCO)c2ccccc2CN(C)C/C=C/c2ccc(Cl)cc2)cc1` [KN-93], for which the “effect on Rac1 activation during sLTP” value in the test on Rac1 is “effectively blocked the activation of Rac1”. Besides, in the test on Tiam1/CaMKII complex, the “effect on Tiam1/CaMKII interaction after sLTP induction” value is “blocked”. In test [2], the “effect on persistent Tiam1 phosphorylation after chemical LTP” value is “blocked”.
